Results taken from patent publication US7062219B2, “Protein fragment complementation assays for high-throughput and high-content screening” (Odyssey Thera Inc., priority 1997, dated 2006).

Columns and labels:
Format in all cases: cell-based
[1] = tested on: p53/p53 homo-dimerization; assay: Renilla luciferase PCA (RLuc PCA) for p53/p53 in HEK293T cells
Text: Either the wild type RLuc F1 or the mutant RLuc F1(C124A) can be used in combination with the RLuc F2 fragment provided above to generate luminescent PCAs. The following examples below show the results obtained with the wild-type RLuc fragments. The F1 and F2 fragments described above were created by oligonucleotide synthesis (Blue Heron Biotechnology, Bothell, Wash.) and were designated RL[1] (aa 1–160) and RL[2] (aa 161–311). […]
STAT1/PDK2 served as a negative control PCA. […] Isolated DNAs were quantitated and then normalized to a concentration of 50 ng/microliter.
(§1) The luciferase PCA was constructed to quantify the homo-dimerization of p53 (p53/p53 PCA) and compared to a negative control RLuc PCA (Pdk2/STAT1). […] For each sample, the luminescence released was captured over 10 seconds, with a 2 second delay after addition of substrate to the sample. Data are reported as relative luminescence units (RLU), and have not been normalized to protein content.
For each condition tested, cells were transfected in quadruplicate with 0.1 microgram of total DNA (50 ng each of RL[1]-p53 and RL[2]-p53) using Fugene transfection reagent as above. […] Drug was removed by washing two times with PBS, and cell lysates were prepared as described above prior to performing a Renilla Luciferase luminescence detection assay (Promega). […]

Pdk2:STAT1 = assay: negative control RLuc PCA (Pdk2/STAT1) in HEK293T cells; conditions: 500 nM CPT for 18 hours
Text: STAT1/PDK2 served as a negative control PCA. The full coding sequences for p53, STAT1 and PDK2 were amplified by PCR from sequence verified full-length cDNAs. The resulting PCR products were desalted, digested with appropriate restriction enzymes to allow directional cloning, and fused in-frame to either the 5′ or 3′-end of RL[1], RL[2], RL[3] or RL[4] through a linker encoding a flexible 10 amino acid peptide (GGGGS)2 (SEQ ID No.1) to assure that the orientation/arrangement of the fusions in space is optimal to bring the fluorescent protein fragments into close proximity. DNAs from recombinant constructs were isolated using Qiagen Turbo BioRobot Prep kits (Qiagen, Chatsworth, Calif.) on a Beckman FX robotic workstation (Beckman Coulter, Fullerton, Calif.). Isolated DNAs were quantitated and then normalized to a concentration of 50 ng/microliter.
as §1, with “content. […]” for “content.”

PKB/hFt1 complex = assay: GFP PCA for PKB/hFt1 in COS-1 cells, fluorometric analysis and microscopy; conditions: 10% serum or 20 μg/ml insulin, 30 min
Text: (§2) DNA Constructs. The full-length cDNAs encoding PKB, PDK1, PKCalpha, the catalytic subunit of PKA (PKAc), GSK3beta, BAD, Caspase 9 and FKHRL1 were amplified by PCR and subcloned into the eukaryotic expression vector pMT3 [Kaufman, 1989 #23], 5′ of the F[2] fragment of GFP. GFP[1] corresponds to amino acids 1 to 158 and GFP[2] to amino acids 159 to 239 of GFP and was amplified by PCR from pCMS-EGFP (Clontech). The PKB-GFP[2] fusion was also inserted in a pMT3 vector where the ampicillin resistance gene has been replaced by a chloramphenicol resistance gene (pMT3-chloramphenicol) for the purpose of the cDNA library screen. In all cases, a 10 amino acid flexible linker consisting of (GGGGS)2 (SEQ ID No.1) was inserted between the cDNA and the GFP fragments to assure that the orientation/arrangement of the fusions in space is optimal to bring the protein fragments into close proximity. […]
(§3) COS-1 cells were split in 12-well plates 24 h before transfection. […] The relative amount of reconstituted GFP, a measure of the interaction between the fused protein partners, was detected by fluorometric analysis. […] The background fluorescence intensity corresponding to non-transfected cells was subtracted from the fluorescence intensities of all of the samples. The sub-cellular location of the hFt1/PKB and hFt1/PDK1 protein-protein complexes was also determined by fluorescence microscopy in live cells. […]

PDK1/hFt1 complex = assay: GFP PCA for PDK1/hFt1 in COS-1 cells, fluorometric analysis and microscopy; conditions: 10% serum or 20 μg/ml insulin, 30 min
Text: as §2, §3

Compound	increase in luminescence relative to vehicle (0.1% DMSO) ([1]; 500 nM CPT for 18 hours, HEK293T lysates)	effect on the p53/p53 interaction in the RLuc PCA (in words) ([1]; FIG. 3(B))	effect on luminescence of the negative control PCA (Pdk2:STAT1)	amount of the PKB/hFt1 complexes (fluorescence) (PKB/hFt1 complex)	subcellular location of PKB/hFt1 complexes (PKB/hFt1 complex)	amount of the PDK1/hFt1 complexes (fluorescence) (PDK1/hFt1 complex)	subcellular location of PDK1/hFt1 complexes (PDK1/hFt1 complex)
CC[C@@]1(O)C(=O)OCc2c1cc1n(c2=O)Cc2cc3ccccc3nc2-1 [camptothecin]	27%	induction	no effect	–	–	–	–
insulin: insulin (Roche Diagnostics), pathway stimulus	–	–	–	increase	redistribution of the protein-protein complexes from the cytosol to the membrane	increase	redistribution of the protein-protein complexes from the cytosol to the membrane
